Patent US8822430B2 (Gilead Sciences, Inc., priority 2009, dated 2014)
pEC50: −log10 of the molar value.

Test system: HCV 1b RLuc cells (dicistronic genotype 1b Con1 replicon)
Test: Renilla luciferase (RLuc)-based HCV replicon reporter assay
Type: cell-based, HCV genotype 1b
Details: Hepatitis C virus, 72 h, HCV 1b RLuc replicon, 72 hours; read-out: Activity (antiviral potency [EC50])
Outline: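 EC50 values were calculated by non-linear regression of Renilla luciferase signal from lysed cells after 72 h of compound exposure. Cells harboured a genotype 1b Con1 dicistronic replicon encoding RLuc. Compounds were serially diluted in DMSO from 10 mM stocks into culture media.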

Compared with `COC(=O)N[C@H](C(=O)N1CC2(CC2)C[C@H]1c1ncc(-c2ccc3cc(-c4ccc(-c5cnc([C@@H]6[C@H]7CC[C@H](C7)N6C(=O)[C@@H](NC(=O)OC)C6CCOCC6)[nH]5)cc4)ccc3c2)[nH]1)C1CCOCC1`, `COC(=O)N[C@H](C(=O)N1CCC[C@H]1c1ncc(-c2ccc3cc(-c4ccc(-c5cnc([C@@H]6CCCN6C(=O)[C@@H](NC(=O)OC)C6CCOCC6)[nH]5)cc4)ccc3c2)[nH]1)C1CCCCC1` is 0.35 log units higher in pEC50: 10.59 for the first, 10.94 for the second. The second is the more potent here.

Going from `COC(=O)N[C@@H](C)C(=O)N1[C@@H](c2ccccc2)CC[C@H]1c1ncc(-c2ccc(-c3ccc4cc(-c5cnc([C@@H]6CCCN6C(=O)[C@@H](NC(=O)OC)C(C)C)[nH]5)ccc4c3)cc2)[nH]1` to `COC(=O)N[C@H](C(=O)N1CCC[C@H]1c1ncc(-c2ccc3cc(-c4ccc(-c5cnc([C@@H]6CCCN6C(=O)[C@@H](NC(=O)OC)C(C)C)[nH]5)cc4)ccc3c2)[nH]1)c1ccccc1`, the pEC50 rises from 9.10 to 10.52 (1.42 log units). The second is the more potent here.

First: COC(=O)N[C@H](C(=O)N1CCC[C@H]1c1ncc(-c2ccc3c(c2)oc2cc(-c4cnc([C@@H]5CCCN5C(=O)[C@@H](NC(=O)OC)C(C)C)[nH]4)ccc23)[nH]1)C(C)C
Second: COC(=O)N[C@H](C(=O)N1CCC[C@H]1c1ncc(-c2ccc3c4ccc(-c5cnc([C@@H]6CCCN6C(=O)[C@@H](NC(=O)OC)C(C)C)[nH]5)cc4[s+]([O-])c3c2)[nH]1)C(C)C
The pEC50 of the first is 0.79 log units higher: 11.28 for the first, 10.49 for the second. The first is the more potent here.

First: COC(=O)N[C@H](C(=O)N1C[C@@H](C#N)C[C@H]1c1ncc(-c2ccc(C#Cc3ccc(-c4cnc([C@@H]5CC6(CC6)CN5C(=O)[C@@H](NC(=O)OC)C(C)C)[nH]4)cc3)cc2)[nH]1)C(C)C
Second: COC(=O)N[C@H](C(=O)N1C[C@@H](C#N)C[C@H]1c1ncc(-c2ccc(-c3ccc4cc(-c5cnc([C@@H]6CC7(CC7)CN6C(=O)[C@@H](NC(=O)OC)C(C)C)[nH]5)ccc4c3)cc2)[nH]1)C(C)C
The pEC50 of the first is 0.33 log units lower: 10.83 for the first, 11.16 for the second. The second is the more potent here.

Compared with `COC(=O)N[C@H](C(=O)N1CCC[C@H]1c1ncc(-c2ccc3c(c2)Nc2ccc(-c4cnc([C@@H]5CCCN5C(=O)[C@@H](NC(=O)OC)C(C)C)[nH]4)cc2S3)[nH]1)C(C)C`, `COC(=O)N[C@H](C(=O)N1CCC[C@H]1c1ncc(-c2ccc3c(c2)Cc2cc(-c4cnc([C@@H]5CCCN5C(=O)[C@@H](NC(=O)OC)C(C)C)[nH]4)ccc2-3)[nH]1)C(C)C` is 2.10 log units higher in pEC50: 8.76 for the first, 10.86 for the second. The second is the more potent here.

First: COC(=O)NC(C(=O)N1CCC[C@H]1c1ncc(-c2ccc(-c3ccc4cc(-c5cnc([C@@H]6CCCN6C(=O)[C@@H](NC(=O)OC)C(C)C)[nH]5)ccc4c3)cc2)[nH]1)=C1CCOCC1
Second: COC(=O)N[C@@H](C)C(=O)N1[C@@H]2CC[C@@H](C2)[C@H]1c1ncc(-c2ccc3cc(-c4ccc(-c5cnc([C@@H]6CCCN6C(=O)[C@@H](NC(=O)OC)C(C)C)[nH]5)cc4)ccc3c2)[nH]1
The pEC50 of the first is 0.48 log units lower: 10.32 for the first, 10.80 for the second. The second is the more potent here.

`COC(=O)N[C@H](C(=O)N1CCC[C@H]1c1ncc(-c2ccc(-c3cc4ccc(-c5cnc([C@@H]6CCCN6C(=O)[C@@H](NC(=O)OC)C(C)C)[nH]5)cc4s3)cc2)[nH]1)C(C)C` and `COC(=O)NC(C(=O)N1CCC[C@H]1c1ncc(-c2cc3sc(-c4ccc(-c5cnc([C@@H]6CCCN6C(=O)[C@@H](NC(=O)OC)C(C)C)[nH]5)cc4)cc3s2)[nH]1)C(C)C` (stereo partly shown) are within 0.2 log units of each other in pEC50: 11.03 for the first, 10.89 for the second.

`COC(=O)N[C@H](C(=O)N1CCC[C@H]1c1ncc(-c2ccc3c(c2)CCc2cc(-c4ccc5nc([C@@H]6[C@H]7CC[C@H](C7)N6C(=O)[C@@H](NC(=O)OC)C(C)C)[nH]c5c4)ccc2-3)[nH]1)C(C)C` and `COC(=O)N[C@H](C(=O)N1CCC[C@H]1c1ncc(-c2ccc3c(c2)C(=O)c2cc(-c4ccc5nc([C@@H]6[C@H]7CC[C@H](C7)N6C(=O)[C@@H](NC(=O)OC)C(C)C)[nH]c5c4)ccc2-3)[nH]1)C(C)C` are within 0.2 log units of each other in pEC50: 11.27 for the first, 11.22 for the second.

Compared with `COC(=O)N[C@H](C(=O)N1C[C@@H](C#N)C[C@H]1c1ncc(-c2ccc3c(c2)C(F)(F)c2cc(-c4ccc5nc([C@@H]6[C@H]7CC[C@H](C7)N6C(=O)[C@@H](NC(=O)OC)C(C)C)[nH]c5c4)ccc2-3)[nH]1)C(C)C`, `COC(=O)N[C@H](C(=O)N1CCC[C@H]1c1ncc(-c2ccc3c(c2)C(F)(F)c2cc(-c4ccc5nc([C@@H]6[C@H]7CC[C@H](C7)N6C(=O)[C@@H](NC(=O)OC)C(C)C)[nH]c5c4)ccc2-3)[nH]1)C(C)C` is 0.31 log units higher in pEC50: 11.23 for the first, 11.54 for the second. The second is the more potent here.

Going from `COC(=O)N[C@@H](C)C(=O)N1[C@@H]2CC[C@@H](C2)[C@H]1c1ncc(-c2ccc3cc(-c4ccc5cc(-c6cnc([C@@H]7CCCN7C(=O)[C@@H](NC(=O)OC)C(C)C)[nH]6)ccc5c4)ccc3c2)[nH]1` to `COC(=O)N[C@H](C(=O)N1C[C@@H](C#N)C[C@H]1c1ncc(-c2ccc3cc(-c4ccc(-c5cnc([C@@H]6[C@H]7CC[C@H](C7)N6C(=O)[C@@H](NC(=O)OC)C(C)C)[nH]5)cc4)ccc3c2)[nH]1)C(C)C`, the pEC50 rises from 8.93 to 11.01 (2.08 log units).

Compared with `COC(=O)N[C@H](C(=O)N1CCC[C@H]1c1ncc(-c2ccc(C#Cc3ccc(-c4cnc([C@H]5N(C(=O)[C@@H](NC(=O)OC)C(C)C)CSC5(C)C)[nH]4)cc3)cc2)[nH]1)C(C)C`, `CNC(=O)O[C@H](C(=O)N1CCC[C@H]1c1ncc(-c2ccc(C#Cc3ccc(-c4cnc([C@@H]5CCCN5C(=O)[C@@H](NC(=O)OC)C(C)C)[nH]4)cc3)cc2)[nH]1)C(C)C` is 0.47 log units lower in pEC50: 10.37 for the first, 9.90 for the second.

Going from `COC(=O)N[C@H](C(=O)N1CCC[C@H]1c1ncc(-c2ccc(-c3ccc(-c4cnc([C@@H]5CC6(CN5C(=O)[C@@H](NC(=O)OC)C(C)C)OCCO6)[nH]4)cc3)cc2)[nH]1)C(C)C` to `COC(=O)N[C@H](C(=O)N1CC2(CC2)C[C@H]1c1ncc(-c2ccc3cc(-c4ccc(-c5cnc([C@@H]6CC7(CN6C(=O)[C@@H](NC(=O)OC)C(C)C)OCCO7)[nH]5)cc4)ccc3c2)[nH]1)C(C)C`, the pEC50 rises from 10.26 to 11.20 (0.94 log units). The second is the more potent here.

Going from `COC(=O)N[C@H](C(=O)N1CCC[C@H]1c1ncc(-c2ccc(-c3ccc(-c4cnc(CN5CCC[C@H](NC(=O)OC(C)(C)C)C5=O)[nH]4)cc3)cc2)[nH]1)C(C)C` to `COC(=O)N[C@H]1CCCN(Cc2ncc(-c3ccc(-c4ccc(-c5cnc([C@@H]6CCCN6C(=O)[C@@H](NC(=O)OC)C(C)C)[nH]5)cc4)cc3)[nH]2)C1=O`, the pEC50 falls from 10.24 to 9.83 (0.41 log units). The first is the more potent here.

`COC(=O)N[C@@H](CCOC(F)F)C(=O)N1CC2(CC2)C[C@H]1c1ncc(-c2ccc3cc(-c4ccc(-c5cnc([C@@H]6[C@H]7CC[C@H](C7)N6C(=O)[C@@H](NC(=O)OC)C(C)C)[nH]5)cc4)ccc3c2)[nH]1` and `COC(=O)N[C@H](C(=O)N1[C@@H]2CC[C@@H](C2)[C@H]1c1ncc(-c2ccc(-c3ccc4cc(-c5cnc([C@@H]6CC7(CC7)CN6C(=O)[C@@H](NC(=O)OC)C(C)OC)[nH]5)ccc4c3)cc2)[nH]1)C(C)C` (stereo partly shown) are within 0.2 log units of each other in pEC50: 10.94 for the first, 11.11 for the second.

First: COC(=O)N[C@@H](C)C(=O)N1CCN(C(=O)OC)C[C@H]1c1ncc(-c2ccc(-c3ccc(-c4cnc([C@@H]5CCCN5C(=O)[C@@H](NC(=O)OC)C(C)C)[nH]4)cc3)cc2)[nH]1
Second: COC(=O)N[C@H](C(=O)N1CCC[C@H]1c1ncc(-c2ccc(-c3ccc(-c4cnc([C@@H]5C[C@@H](COC(F)F)CN5C(=O)[C@@H](NC(=O)OC)C(C)C)[nH]4)cc3)cc2)[nH]1)C(C)C
The pEC50 of the first is 1.24 log units lower: 9.65 for the first, 10.89 for the second. The second is the more potent here.

Compared with `COC(=O)N[C@H](C(=O)N1CCC[C@H]1c1ncc(-c2ccc3cc(-c4ccc5nc([C@@H]6CCN6C(=O)[C@H](NC(=O)OC)c6ccccc6)[nH]c5c4)ccc3c2)[nH]1)C(C)C`, `COC(=O)N[C@H](C(=O)N1CCC[C@H]1c1ncc(-c2ccc3cc(-c4ccc(-c5cnc([C@@H]6C[C@H](C#N)CN6C(=O)[C@@H](NC(=O)OC)C(C)C)[nH]5)cc4)ccc3c2)[nH]1)C(C)C` is 1.02 log units higher in pEC50: 10.15 for the first, 11.17 for the second.

Compared with `COC(=O)N[C@H](C(=O)N1CC2(CC2)C[C@H]1c1ncc(-c2ccc3cc(-c4ccc(-c5cnc([C@@H]6[C@H]7CC[C@H](C7)N6C(=O)[C@@H](NC(=O)OC)C(C)(C)OC)[nH]5)cc4)ccc3c2)[nH]1)C(C)C`, `COCC[C@H](NC(=O)OC)C(=O)N1CCS[C@H]1c1ncc(-c2ccc(-c3ccc4cc(-c5cnc([C@@H]6CC7(CC7)CN6C(=O)[C@@H](NC(=O)OC)C(C)C)[nH]5)ccc4c3)cc2)[nH]1` is 0.44 log units lower in pEC50: 10.84 for the first, 10.40 for the second.

Going from `COC(=O)N[C@H](C(=O)N1CCC[C@H]1c1ncc(-c2cc3c(C)c4sc(-c5cnc([C@@H]6CCCN6C(=O)[C@@H](NC(=O)OC)C6CCOCC6)[nH]5)cc4c(C)c3s2)[nH]1)C1CCOCC1` to `COC(=O)N[C@H](C(=O)N1CCC[C@H]1c1ncc(-c2ccc3c(c2)CN(C)Cc2cc(-c4cnc([C@@H]5CCCN5C(=O)[C@@H](NC(=O)OC)C(C)C)[nH]4)ccc2-3)[nH]1)C(C)C`, the pEC50 falls from 9.97 to 7.95 (2.02 log units).

`COC(=O)N[C@H](C(=O)N1[C@@H]2CC[C@@H](C2)[C@H]1c1ncc(-c2ccc(-c3ccc(-c4cnc([C@@H]5[C@H]6CC[C@H](C6)N5C(=O)[C@@H](NC(=O)OC)C(C)C)[nH]4)cc3)cc2)[nH]1)C(C)C` and `COC(=O)N[C@H](C(=O)N1CCC[C@H]1c1ncc(-c2ccc(-c3ccc(-c4cnc([C@@H]5C[C@H](COC(F)F)CN5C(=O)[C@@H](NC(=O)OC)C(C)C)[nH]4)cc3)cc2)[nH]1)C(C)C` are within 0.2 log units of each other in pEC50: 11.00 for the first, 10.82 for the second.

First: COC(=O)N[C@H](C(=O)N1CN(C(=O)OC(C)(C)C)C[C@H]1C(=O)NCC(=O)c1ccc(-c2ccc(-c3cnc([C@@H]4CCCN4C(=O)[C@@H](NC(=O)OC)C(C)C)[nH]3)cc2)cc1)C(C)C
Second: COC(=O)N[C@H](C(=O)NC1(c2ncc(-c3ccc(-c4ccc(-c5cnc([C@@H]6CCCN6C(=O)[C@@H](NC(=O)OC)C(C)C)[nH]5)cc4)cc3)[nH]2)CC1)C(C)C
The pEC50 of the first is 1.59 log units lower: 8.47 for the first, 10.06 for the second. The second is the more potent here.

Going from `COC(=O)N[C@H](C(=O)N1CCC[C@H]1c1ncc(-c2ccc3cc(-c4ccc(-c5cnc([C@@H]6C[C@H](CN(C)C)CN6C(=O)[C@@H](NC(=O)OC)C(C)C)[nH]5)cc4)ccc3c2)[nH]1)C(C)C` to `COC(=O)N[C@H](C(=O)N1CCC[C@H]1c1ncc(-c2ccc(-c3ccc(-c4cnc([C@@H]5CN(S(=O)(=O)c6ccccc6)CN5C(=O)[C@@H](NC(=O)OC)C(C)C)[nH]4)cc3)cc2)[nH]1)C(C)C`, the pEC50 rises from 9.90 to 10.10 (0.20 log units).

`COC(=O)N[C@H](C(=O)N1CCC[C@H]1c1nc2ccc(-c3cc4cc5sc(-c6ccc7nc([C@@H]8CCCN8C(=O)[C@@H](NC(=O)OC)C(C)C)[nH]c7c6)cc5cc4s3)cc2[nH]1)C(C)C` gave a pEC50 of 10.85.
